Test results: the supplement of paper PMC10307832

Legend:
Experiment in all cases: relative viability (nuclei count vs DMSO), 5 days (fraction); higher = more cells survive
NCI-H1975 = system: NCI-H1975
How it was run: (§1)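 Medians of duplicate plates are given as relative viability. That measure is the nuclei count in treated wells divided by the count in vehicle wells. Counts were taken on 4× images of lung cancer cell lines in 1536-well plates, 5 days after pin-tool dosing the day after seeding with one drug alone or a fixed anchor-drug dose plus five library-drug doses (not always all listed) in √10 steps.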

COR-L 105 = system: COR-L 105
How it was run: as §1

201T = system: 201T
How it was run: as §1

LU99A = system: LU99A
How it was run: as §1

NCI-H2085 = system: NCI-H2085
How it was run: as §1

NCI-H2126 = system: NCI-H2126
How it was run: as §1

PC-3 [JPC-3] = system: PC-3 [JPC-3]
How it was run: as §1

HCC-827 = system: HCC-827
How it was run: as §1

SW 1573 = system: SW 1573
How it was run: as §1

NCI-H1437 = system: NCI-H1437
How it was run: as §1

NCI-H647 = system: NCI-H647
How it was run: as §1

LCLC-97TM1 = system: LCLC-97TM1
How it was run: as §1

NCI-H2087 = system: NCI-H2087
How it was run: as §1

EPLC-272H = system: EPLC-272H
How it was run: as §1

NCI-H358 = system: NCI-H358
How it was run: as §1

H3255 = system: H3255
How it was run: as §1

HCC-44 = system: HCC-44
How it was run: as §1

LOU-NH91 = system: LOU-NH91
How it was run: as §1

EKVX = system: EKVX
How it was run: as §1

NCI-H1395 = system: NCI-H1395
How it was run: as §1

NCI-H1666 = system: NCI-H1666
How it was run: as §1

NCI-H2342 = system: NCI-H2342
How it was run: as §1

BEN = system: BEN
How it was run: as §1

HOP-62 = system: HOP-62
How it was run: as §1

SMILES: CC(C)Oc1cc(Nc2nc(N[C@@H](C)c3ccc(F)cn3)ncc2Cl)n[nH]1 [AZ23] + Nc1nc2[nH]cc(CCc3ccc(C(=O)N[C@@H](CCC(=O)O)C(=O)O)cc3)c2c(=O)[nH]1 [Pemetrexed] (partner 0.2 µM)
- relative viability (NCI-H1975; first compound 0.01 µM): 0.272
- relative viability (NCI-H1975; first compound 0.03162 µM): 0.296
- relative viability (NCI-H1975; first compound 0.3162 µM): 0.312
- relative viability (COR-L 105; first compound 0.01 µM): 0.902
- relative viability (COR-L 105; first compound 0.03162 µM): 1.24
- relative viability (COR-L 105; first compound 0.3162 µM): 1.1
- relative viability (201T; first compound 0.01 µM): 0.251
- relative viability (201T; first compound 0.03162 µM): 0.348
- relative viability (201T; first compound 0.3162 µM): 0.336
- relative viability (LU99A; first compound 0.01 µM): 0.146
- relative viability (LU99A; first compound 0.03162 µM): 0.199
- relative viability (LU99A; first compound 0.3162 µM): 0.209
- relative viability (NCI-H2085; first compound 0.01 µM): 0.806
- relative viability (NCI-H2085; first compound 0.03162 µM): 0.907
- relative viability (NCI-H2085; first compound 0.3162 µM): 0.994
- relative viability (NCI-H2126; first compound 0.01 µM): 0.62
- relative viability (NCI-H2126; first compound 0.03162 µM): 0.695
- relative viability (NCI-H2126; first compound 0.3162 µM): 0.679
- relative viability (PC-3 [JPC-3]; first compound 0.01 µM): 0.955
- relative viability (PC-3 [JPC-3]; first compound 0.03162 µM): 1.25
- relative viability (PC-3 [JPC-3]; first compound 0.3162 µM): 1.22
- relative viability (HCC-827; first compound 0.01 µM): 0.2
- relative viability (HCC-827; first compound 0.03162 µM): 0.27
- relative viability (HCC-827; first compound 0.3162 µM): 0.242
- relative viability (SW 1573; first compound 0.01 µM): 0.958
- relative viability (SW 1573; first compound 0.03162 µM): 0.792
- relative viability (SW 1573; first compound 0.3162 µM): 0.849
- relative viability (NCI-H1437; first compound 0.01 µM): 0.283
- relative viability (NCI-H1437; first compound 0.03162 µM): 0.345
- relative viability (NCI-H1437; first compound 0.3162 µM): 0.331
- relative viability (NCI-H647; first compound 0.01 µM): 0.151
- relative viability (NCI-H647; first compound 0.03162 µM): 0.192
- relative viability (NCI-H647; first compound 0.3162 µM): 0.182
- relative viability (LCLC-97TM1; first compound 0.01 µM): 0.138
- relative viability (LCLC-97TM1; first compound 0.03162 µM): 0.193
- relative viability (LCLC-97TM1; first compound 0.3162 µM): 0.166
- relative viability (NCI-H2087; first compound 0.01 µM): 0.727
- relative viability (NCI-H2087; first compound 0.03162 µM): 0.691
- relative viability (NCI-H2087; first compound 0.3162 µM): 0.766
- relative viability (EPLC-272H; first compound 0.03162 µM): 0.322
- relative viability (EPLC-272H; first compound 0.3162 µM): 0.302
- relative viability (NCI-H358; first compound 0.01 µM): 0.151
- relative viability (NCI-H358; first compound 0.03162 µM): 0.175
- relative viability (NCI-H358; first compound 0.3162 µM): 0.17
- relative viability (H3255; first compound 0.01 µM): 0.536
- relative viability (H3255; first compound 0.03162 µM): 0.603
- relative viability (H3255; first compound 0.3162 µM): 0.577
- relative viability (HCC-44; first compound 0.01 µM): 0.373
- relative viability (HCC-44; first compound 0.03162 µM): 0.66
- relative viability (HCC-44; first compound 0.3162 µM): 0.698
- relative viability (LOU-NH91; first compound 0.01 µM): 0.505
- relative viability (LOU-NH91; first compound 0.03162 µM): 0.386
- relative viability (LOU-NH91; first compound 0.3162 µM): 0.394
- relative viability (EKVX; first compound 0.01 µM): 0.24
- relative viability (EKVX; first compound 0.03162 µM): 0.5
- relative viability (EKVX; first compound 0.3162 µM): 0.381
- relative viability (NCI-H1395; first compound 0.03162 µM): 0.97
- relative viability (NCI-H1395; first compound 0.3162 µM): 0.929
- relative viability (NCI-H1666; first compound 0.01 µM): 0.822
- relative viability (NCI-H1666; first compound 0.03162 µM): 0.837
- relative viability (NCI-H1666; first compound 0.3162 µM): 0.771
- relative viability (NCI-H2342; first compound 0.01 µM): 0.903
- relative viability (NCI-H2342; first compound 0.03162 µM): 0.811
- relative viability (NCI-H2342; first compound 0.3162 µM): 0.776
- relative viability (BEN; first compound 0.01 µM): 0.634
- relative viability (BEN; first compound 0.03162 µM): 0.892
- relative viability (BEN; first compound 0.3162 µM): 0.732
- relative viability (HOP-62; first compound 0.01 µM): 0.287
- relative viability (HOP-62; first compound 0.03162 µM): 0.359
- relative viability (HOP-62; first compound 0.3162 µM): 0.359

SMILES: CC(C)Oc1cc(Nc2nc(N[C@@H](C)c3ccc(F)cn3)ncc2Cl)n[nH]1 [AZ23] + COc1cccc2cc(-c3nc([C@H]4CC[C@H](C(=O)O)CC4)n4ncnc(N)c34)[nH]c12 [OSI-027] (partner 0.5 µM)
- relative viability (NCI-H1975; first compound 0.01 µM): 0.874
- relative viability (NCI-H1975; first compound 0.03162 µM): 0.812
- relative viability (NCI-H1975; first compound 0.3162 µM): 0.727
- relative viability (COR-L 105; first compound 0.01 µM): 0.657
- relative viability (COR-L 105; first compound 0.03162 µM): 0.849
- relative viability (COR-L 105; first compound 0.3162 µM): 0.809
- relative viability (201T; first compound 0.01 µM): 0.504
- relative viability (201T; first compound 0.03162 µM): 0.827
- relative viability (201T; first compound 0.3162 µM): 0.728
- relative viability (LU99A; first compound 0.01 µM): 0.264
- relative viability (LU99A; first compound 0.03162 µM): 0.312
- relative viability (LU99A; first compound 0.3162 µM): 0.286
- relative viability (NCI-H2085; first compound 0.01 µM): 0.676
- relative viability (NCI-H2085; first compound 0.03162 µM): 0.76
- relative viability (NCI-H2085; first compound 0.3162 µM): 0.659
- relative viability (NCI-H2126; first compound 0.01 µM): 0.692
- relative viability (NCI-H2126; first compound 0.03162 µM): 0.735
- relative viability (NCI-H2126; first compound 0.3162 µM): 0.756
- relative viability (PC-3 [JPC-3]; first compound 0.01 µM): 0.857
- relative viability (PC-3 [JPC-3]; first compound 0.03162 µM): 0.71
- relative viability (PC-3 [JPC-3]; first compound 0.3162 µM): 0.742
- relative viability (HCC-827; first compound 0.01 µM): 0.78
- relative viability (HCC-827; first compound 0.03162 µM): 0.793
- relative viability (HCC-827; first compound 0.3162 µM): 0.882
- relative viability (SW 1573; first compound 0.01 µM): 0.925
- relative viability (SW 1573; first compound 0.03162 µM): 0.7
- relative viability (SW 1573; first compound 0.3162 µM): 0.649
- relative viability (NCI-H1437; first compound 0.01 µM): 0.878
- relative viability (NCI-H1437; first compound 0.03162 µM): 1.01
- relative viability (NCI-H1437; first compound 0.3162 µM): 1.05
- relative viability (NCI-H647; first compound 0.01 µM): 0.765
- relative viability (NCI-H647; first compound 0.03162 µM): 0.745
- relative viability (NCI-H647; first compound 0.3162 µM): 0.789
- relative viability (LCLC-97TM1; first compound 0.01 µM): 0.495
- relative viability (LCLC-97TM1; first compound 0.03162 µM): 0.519
- relative viability (LCLC-97TM1; first compound 0.3162 µM): 0.586
- relative viability (NCI-H2087; first compound 0.01 µM): 0.675
- relative viability (NCI-H2087; first compound 0.03162 µM): 0.477
- relative viability (NCI-H2087; first compound 0.3162 µM): 0.459
- relative viability (EPLC-272H; first compound 0.01 µM): 0.238
- relative viability (EPLC-272H; first compound 0.03162 µM): 0.275
- relative viability (EPLC-272H; first compound 0.3162 µM): 0.256
- relative viability (NCI-H358; first compound 0.01 µM): 0.682
- relative viability (NCI-H358; first compound 0.03162 µM): 0.725
- relative viability (NCI-H358; first compound 0.3162 µM): 0.805
- relative viability (H3255; first compound 0.01 µM): 0.55
- relative viability (H3255; first compound 0.03162 µM): 0.618
- relative viability (H3255; first compound 0.3162 µM): 0.635
- relative viability (HCC-44; first compound 0.01 µM): 0.538
- relative viability (HCC-44; first compound 0.03162 µM): 0.661
- relative viability (HCC-44; first compound 0.3162 µM): 0.375
- relative viability (LOU-NH91; first compound 0.01 µM): 0.692
- relative viability (LOU-NH91; first compound 0.03162 µM): 0.753
- relative viability (LOU-NH91; first compound 0.3162 µM): 0.704
- relative viability (EKVX; first compound 0.01 µM): 0.801
- relative viability (EKVX; first compound 0.03162 µM): 0.636
- relative viability (EKVX; first compound 0.3162 µM): 0.66
- relative viability (NCI-H1395; first compound 0.03162 µM): 0.708
- relative viability (NCI-H1395; first compound 0.3162 µM): 0.655
- relative viability (NCI-H1666; first compound 0.01 µM): 0.847
- relative viability (NCI-H1666; first compound 0.03162 µM): 0.849
- relative viability (NCI-H1666; first compound 0.3162 µM): 0.823
- relative viability (NCI-H2342; first compound 0.01 µM): 0.702
- relative viability (NCI-H2342; first compound 0.03162 µM): 0.593
- relative viability (NCI-H2342; first compound 0.3162 µM): 0.569
- relative viability (BEN; first compound 0.01 µM): 0.312
- relative viability (BEN; first compound 0.03162 µM): 0.287
- relative viability (BEN; first compound 0.3162 µM): 0.268
- relative viability (HOP-62; first compound 0.01 µM): 0.853
- relative viability (HOP-62; first compound 0.03162 µM): 0.924
- relative viability (HOP-62; first compound 0.3162 µM): 0.973
